Results from the NIST ThermoML archive (doi:10.1016/j.fluid.2004.10.023).
± gives the expanded uncertainty stated by the source.

Settings: Liquid, Closed cell (Static) method

Structure (SMILES)	vapor or sublimation pressure (318.4 K)	other results
C=CCC [1-butene]	–	vapor or sublimation pressure (318.42 K): 525.55 ± 2.3 kPa
CC(C)C [2-methylpropane]	–	vapor or sublimation pressure (318.39 K): 607.54 ± 2.6 kPa
C=C(C)C [2-methylpropene]	538.15 ± 2.3 kPa	–
C/C=C\C [(Z)-2-butene]	391.45 ± 1.8 kPa	–
CCCC [butane]	436.55 ± 1.9 kPa	–
CCOC(C)=O [ethyl acetate]	31.37 ± 0.42 kPa	–
